Assay results from patent publication EP3064205A1, “Therapeutic use of isomeric forms of 2-(4-chlorophenyl)quinolin-4-yl)(piperidin-2-yl)methanol” (Glionova AB, priority 2015, dated 2016).
Where two headings read alike, the source gives them in different places.

Tests used:
Assay in all cases: 3D clonogenic assay (PDX)
Type in all cases: cell-based, human
HNXF 536 = settings: HNXF 536, Head and Neck; for IC50: Homo sapiens
Summary of the method: (§1)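 Colony counts from automated image analysis of INT-stained soft-agar cultures served as the read-out. Cells were dissociated from subcutaneous PDX tumors and layered in agar. Compound was applied 24 h later at 10 concentrations (top 50 µM) and left on the cells for 8–13 days.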

GXA 3023 = settings: GXA 3023, Asian Gastric; for IC50: Homo sapiens
Summary of the method: as §1

OVXF 1544 = settings: OVXF 1544, Ovarian; for IC50: Homo sapiens
Summary of the method: as §1

HNXF 1842 = settings: HNXF 1842, Head and Neck; for IC50: Homo sapiens
Summary of the method: as §1

MEXF 276 = settings: MEXF 276, Melanoma; for IC50: Homo sapiens
Summary of the method: as §1

PAXF 2046 = settings: PAXF 2046, Pancreas; for IC50: Homo sapiens
Summary of the method: as §1

CXF 676 = settings: CXF 676, Colorectal; for IC50: Homo sapiens
Summary of the method: as §1

MEXF 672 = settings: MEXF 672, Melanoma; for IC50: Homo sapiens
Summary of the method: as §1

LXFA 629 = settings: LXFA 629, Lung Adeno; for IC50: Homo sapiens
Summary of the method: as §1

LXFA 923 = settings: LXFA 923, Lung Adeno; for IC50: Homo sapiens
Summary of the method: as §1

RXF 1781 = settings: RXF 1781, Renal; for IC50: Homo sapiens
Summary of the method: as §1

PAXF 2045 = settings: PAXF 2045, Pancreas; for IC50: Homo sapiens
Summary of the method: as §1

## O[C@H](c1cc(-c2ccc(Cl)cc2)nc2ccccc12)[C@@H]1CCCCN1 [S1, (R)-(2-(4-chlorophenyl)quinolin-4-yl)((S)-piperidin-2-yl)methanol]
HNXF 536
  b (bottom plateau of concentration-effect curve): 14
  t (top plateau of concentration-effect curve): 99
HNXF 536; read-out: abs. IC50
  IC50: 8.21 µM
HNXF 536; read-out: rel. IC50
  IC50: 7.47 µM
GXA 3023
  b (bottom plateau of concentration-effect curve): 30
  t (top plateau of concentration-effect curve): 90
GXA 3023; read-out: abs. IC50
  IC50: 5.26 µM
GXA 3023; read-out: rel. IC50
  IC50: 5.02 µM
OVXF 1544; read-out: abs. IC50
  IC50: 13.5 µM
OVXF 1544; read-out: rel. IC50
  IC50: 12.8 µM
OVXF 1544
  b (bottom plateau of concentration-effect curve): 22
  t (top plateau of concentration-effect curve): 107
HNXF 1842
  b (bottom plateau of concentration-effect curve): 15
  t (top plateau of concentration-effect curve): 77
HNXF 1842; read-out: abs. IC50
  IC50: 5.4 µM
HNXF 1842; read-out: rel. IC50
  IC50: 5.53 µM
MEXF 276; read-out: abs. IC50
  IC50: 4.73 µM
MEXF 276; read-out: rel. IC50
  IC50: 4.65 µM
MEXF 276
  b (bottom plateau of concentration-effect curve): 15
  t (top plateau of concentration-effect curve): 95
PAXF 2046; read-out: abs. IC50
  IC50: 18.6 µM
PAXF 2046; read-out: rel. IC50
  IC50: 9.45 µM
PAXF 2046
  b (bottom plateau of concentration-effect curve): 38
  t (top plateau of concentration-effect curve): 100
CXF 676
  b (bottom plateau of concentration-effect curve): 19
  t (top plateau of concentration-effect curve): 105
CXF 676; read-out: abs. IC50
  IC50: 8.92 µM
CXF 676; read-out: rel. IC50
  IC50: 8.78 µM
MEXF 672; read-out: abs. IC50
  IC50: 8.96 µM
MEXF 672; read-out: rel. IC50
  IC50: 8.56 µM
MEXF 672
  b (bottom plateau of concentration-effect curve): 39
  t (top plateau of concentration-effect curve): 96
LXFA 629; read-out: abs. IC50
  IC50: 9.09 µM
LXFA 629; read-out: rel. IC50
  IC50: 8.85 µM
LXFA 629
  b (bottom plateau of concentration-effect curve): 26
  t (top plateau of concentration-effect curve): 108
LXFA 923; read-out: abs. IC50
  IC50: 8.55 µM
LXFA 923; read-out: rel. IC50
  IC50: 8.44 µM
LXFA 923
  b (bottom plateau of concentration-effect curve): 21
  t (top plateau of concentration-effect curve): 101
RXF 1781; read-out: abs. IC50
  IC50: 11.1 µM
RXF 1781; read-out: rel. IC50
  IC50: 11.1 µM
RXF 1781
  b (bottom plateau of concentration-effect curve): 8
  t (top plateau of concentration-effect curve): 112
PAXF 2045; read-out: abs. IC50
  IC50: 8.14 µM
PAXF 2045; read-out: rel. IC50
  IC50: 7.03 µM
PAXF 2045
  b (bottom plateau of concentration-effect curve): 22
  t (top plateau of concentration-effect curve): 95
